Assay results reported in the supplement of paper PMC10307832.

Key:
Experiment in all cases: relative viability (nuclei count vs DMSO), 5 days (fraction); higher = more cells survive
[1] = test system: NCI-H1651
How it was run: (§1)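 Nuclei were stained with Hoechst during a one-step fixation (final 0.05% Triton X-100, 1% formaldehyde, 1 ug/ml Hoechst) carried out 5 days after dosing, then counted on 4× images. The cells, lung cancer lines in 1536-well plates, had been dosed by pin tool the day after seeding with one drug alone or a fixed anchor-drug dose plus five library-drug doses (not always all listed) in √10 steps. Relative viability is the nuclei count in treated wells divided by that in vehicle wells, and each value is the median of duplicate plates.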

[2] = test system: CAL-12T
How it was run: as §1

[3] = test system: LC-2-ad
How it was run: as §1

[4] = test system: NCI-H1734
How it was run: as §1

[5] = test system: EPLC-272H
How it was run: as §1

[6] = test system: NCI-H2228
How it was run: as §1

[7] = test system: NCI-H2170
How it was run: as §1

[8] = test system: LU99A
How it was run: as §1

[9] = test system: NCI-H2405
How it was run: as §1

[10] = test system: NCI-H1395
How it was run: as §1

[11] = test system: NCI-H1793
How it was run: as §1

[12] = test system: ABC-1
How it was run: as §1

[13] = test system: NCI-H460
How it was run: as §1

[14] = test system: PC-3 [JPC-3]
How it was run: as §1

[15] = test system: NCI-H3122
How it was run: as §1

[16] = test system: NCI-H2087
How it was run: as §1

[17] = test system: NCI-H1944
How it was run: as §1

[18] = test system: LOU-NH91
How it was run: as §1

[19] = test system: HCC-78
How it was run: as §1

[20] = test system: RERF-LC-KJ
How it was run: as §1

[21] = test system: NCI-H1755
How it was run: as §1

[22] = test system: UMC-11
How it was run: as §1

[23] = test system: HCC-366
How it was run: as §1

`Clc1ccc(Nc2nnc(Cc3ccncc3)c3ccccc23)cc1` [Vatalanib] + Cc1nc(NC(=O)N2CCC[C@H]2C(N)=O)sc1-c1ccnc(C(C)(C)C(F)(F)F)c1 [Alpelisib] (partner 2 µM) was tested, and the relative viability ([1]; first compound 0.04 µM) was 0.869, the relative viability ([1]; first compound 0.1265 µM) was 0.863 and the relative viability ([1]; first compound 0.4 µM) was 0.968. The relative viability ([1]; first compound 1.265 µM) was 0.894, the relative viability ([1]; first compound 4 µM) was 0.929 and the relative viability ([2]; first compound 0.04 µM) was 1.05. It also gave a relative viability ([2]; first compound 0.1265 µM) of 1.26, a relative viability ([2]; first compound 0.4 µM) of 1.44 and a relative viability ([2]; first compound 1.265 µM) of 0.987. The relative viability ([2]; first compound 4 µM) was 1.22, the relative viability ([3]; first compound 0.04 µM) was 0.86 and the relative viability ([3]; first compound 0.1265 µM) was 0.847. For the same compound, the relative viability ([3]; first compound 0.4 µM) was 0.988, the relative viability ([3]; first compound 1.265 µM) was 0.825 and the relative viability ([3]; first compound 4 µM) was 0.867. The relative viability ([4]; first compound 0.04 µM) was 0.747, the relative viability ([4]; first compound 0.1265 µM) was 0.684 and the relative viability ([4]; first compound 0.4 µM) was 0.743. It also gave a relative viability ([4]; first compound 1.265 µM) of 0.685, a relative viability ([4]; first compound 4 µM) of 0.689 and a relative viability ([5]; first compound 0.04 µM) of 0.824. It also gave a relative viability ([5]; first compound 0.1265 µM) of 0.963, a relative viability ([5]; first compound 0.4 µM) of 1.08 and a relative viability ([5]; first compound 1.265 µM) of 1.05. It also gave a relative viability ([5]; first compound 4 µM) of 1.06, a relative viability ([6]; first compound 0.04 µM) of 0.691 and a relative viability ([6]; first compound 0.1265 µM) of 0.728. For the same compound, the relative viability ([6]; first compound 0.4 µM) was 0.867, the relative viability ([6]; first compound 1.265 µM) was 0.713 and the relative viability ([6]; first compound 4 µM) was 0.637. The relative viability ([7]; first compound 0.04 µM) was 0.86, the relative viability ([7]; first compound 0.1265 µM) was 0.777 and the relative viability ([7]; first compound 0.4 µM) was 0.861. For the same compound, the relative viability ([7]; first compound 1.265 µM) was 0.81, the relative viability ([7]; first compound 4 µM) was 0.811 and the relative viability ([8]; first compound 0.04 µM) was 0.541. The relative viability ([8]; first compound 0.1265 µM) was 0.514, the relative viability ([8]; first compound 0.4 µM) was 0.531 and the relative viability ([8]; first compound 1.265 µM) was 0.503. It also gave a relative viability ([8]; first compound 4 µM) of 0.575, a relative viability ([9]; first compound 0.04 µM) of 0.959 and a relative viability ([9]; first compound 0.1265 µM) of 0.769. The relative viability ([9]; first compound 1.265 µM) was 0.795, the relative viability ([9]; first compound 4 µM) was 0.773 and the relative viability ([10]; first compound 0.04 µM) was 1.08. The relative viability ([10]; first compound 0.1265 µM) was 1.04, the relative viability ([10]; first compound 0.4 µM) was 1.19 and the relative viability ([10]; first compound 1.265 µM) was 1.08. For the same compound, the relative viability ([10]; first compound 4 µM) was 0.971, the relative viability ([11]; first compound 0.04 µM) was 0.554 and the relative viability ([11]; first compound 0.1265 µM) was 0.659. It also gave a relative viability ([11]; first compound 0.4 µM) of 0.569, a relative viability ([11]; first compound 1.265 µM) of 0.635 and a relative viability ([11]; first compound 4 µM) of 0.647. For the same compound, the relative viability ([12]; first compound 0.04 µM) was 1, the relative viability ([12]; first compound 0.1265 µM) was 0.936 and the relative viability ([12]; first compound 0.4 µM) was 1.2. The relative viability ([12]; first compound 1.265 µM) was 0.853, the relative viability ([12]; first compound 4 µM) was 0.926 and the relative viability ([13]; first compound 0.04 µM) was 0.512. It also gave a relative viability ([13]; first compound 0.1265 µM) of 0.392, a relative viability ([13]; first compound 0.4 µM) of 0.654 and a relative viability ([13]; first compound 1.265 µM) of 0.467. For the same compound, the relative viability ([13]; first compound 4 µM) was 0.441, the relative viability ([14]; first compound 0.04 µM) was 1.01 and the relative viability ([14]; first compound 0.1265 µM) was 0.972. It also gave a relative viability ([14]; first compound 0.4 µM) of 1.01, a relative viability ([14]; first compound 1.265 µM) of 0.941 and a relative viability ([14]; first compound 4 µM) of 1.01. It also gave a relative viability ([15]; first compound 0.04 µM) of 0.779, a relative viability ([15]; first compound 0.1265 µM) of 0.742 and a relative viability ([15]; first compound 0.4 µM) of 0.799. It also gave a relative viability ([15]; first compound 1.265 µM) of 0.93, a relative viability ([15]; first compound 4 µM) of 0.906 and a relative viability ([16]; first compound 0.04 µM) of 1.1. It also gave a relative viability ([16]; first compound 0.1265 µM) of 0.96, a relative viability ([16]; first compound 0.4 µM) of 1.3 and a relative viability ([16]; first compound 1.265 µM) of 0.964. For the same compound, the relative viability ([16]; first compound 4 µM) was 1.1, the relative viability ([17]; first compound 0.04 µM) was 0.888 and the relative viability ([17]; first compound 0.1265 µM) was 0.706. The relative viability ([17]; first compound 0.4 µM) was 0.833, the relative viability ([17]; first compound 1.265 µM) was 0.808 and the relative viability ([17]; first compound 4 µM) was 0.864. For the same compound, the relative viability ([18]; first compound 0.04 µM) was 0.75, the relative viability ([18]; first compound 0.1265 µM) was 0.702 and the relative viability ([18]; first compound 0.4 µM) was 0.595. For the same compound, the relative viability ([18]; first compound 1.265 µM) was 0.704, the relative viability ([18]; first compound 4 µM) was 0.732 and the relative viability ([19]; first compound 0.04 µM) was 0.255. The relative viability ([19]; first compound 0.1265 µM) was 0.346, the relative viability ([19]; first compound 0.4 µM) was 0.277 and the relative viability ([19]; first compound 4 µM) was 0.323. It also gave a relative viability ([20]; first compound 0.04 µM) of 0.824, a relative viability ([20]; first compound 0.1265 µM) of 0.859 and a relative viability ([20]; first compound 0.4 µM) of 0.77. It also gave a relative viability ([20]; first compound 1.265 µM) of 0.74, a relative viability ([20]; first compound 4 µM) of 0.765 and a relative viability ([21]; first compound 0.04 µM) of 0.946. The relative viability ([21]; first compound 0.1265 µM) was 0.895, the relative viability ([21]; first compound 0.4 µM) was 0.977 and the relative viability ([21]; first compound 1.265 µM) was 0.857. The relative viability ([21]; first compound 4 µM) was 0.906, the relative viability ([22]; first compound 0.04 µM) was 0.913 and the relative viability ([22]; first compound 0.1265 µM) was 0.932. For the same compound, the relative viability ([22]; first compound 0.4 µM) was 0.816, the relative viability ([22]; first compound 1.265 µM) was 0.979 and the relative viability ([22]; first compound 4 µM) was 1.07. For the same compound, the relative viability ([23]; first compound 0.04 µM) was 0.388, the relative viability ([23]; first compound 0.1265 µM) was 0.346 and the relative viability ([23]; first compound 0.4 µM) was 0.461. For the same compound, the relative viability ([23]; first compound 1.265 µM) was 0.33 and the relative viability ([23]; first compound 4 µM) was 0.396.
